Results on one compound are retold here after patent US20240208901A1, “Deuterated 3,3'-Diselenodipropionic Acid (DSePA) and Its Use as an Anticancer or Radioprotective Agent” (Secretary, Department of Atomic Energy, priority 2022, published 2024).

Holding throughout (format): cell-based, human
Assay [1] deals with A549 cells. Briefly: MTT assay, anti-proliferative effect in A549 cells. The following applies: 48 h treatment, read-out: IC50 to inhibit cell proliferation. As to the method:
(§1) Therefore, D-DSePA was compared with un-deuterated DSePA for its anticancer activity in A549, H1975 and H3122 cell lines which are representative of NSCLC. For this, above cells were treated with the varying concentrations (0.1-100 μM) of DSePA/D-DSePA for 48 h and the cell viability was determined by MTT assay (FIG. 9A-C). The plot of percent (%) cytotoxicity (100-% viability) versus the concentration of DSePA/D-DSePA was used to estimate the half maximum concentration (IC50) of above compounds to inhibit the proliferation of cells. […] Employing these values, the therapeutic index (IC50 in normal lung cell/IC50 in lung cancer cell) of DSePA and D-DSePA in different pairs of normal versus cancerous cells (viz., A549/WI-38, A549/WI-26 VA4, H1975/WI-38, H1975/WI-26 VA4, H3122/WI-38 and H3122/WI-26 VA4) was calculated (Table-3). […]
(§2) MTT Assay—To evaluate the anti-proliferative effect of D-DScPA and DScPA, Cells (˜5×10^3) suspended in 100 μl of complete culture medium were seeded in each well of 96 well plates. […] The percentage (%) cytotoxicity was calculated from the decrease in absorbance at 570 nm of treated groups as compared to that of control group. […] The therapeutic index was calculated by normalizing the IC50 concentration of D-DSePA/DSePA in non-cancerous cells to that in cancerous cells.
Background: Tetrazolium assays rely on reduction of a dye to a coloured formazan, in cell work by metabolically active cells.

For the next assay, the system named is WI-26 VA4 cells. Briefly: MTT assay, toxicity in non-cancerous lung fibroblast WI-26 VA4 cells. The following applies: 48 h post treatment, read-out: IC50 for inhibiting the cell proliferation.
From the text: as §1, with “For this, above cells were treated with the varying concentrations (0.1-100 μM) of DSePA/D-DSePA for 48 h and the cell viability was determined by MTT assay (FIG. 9A-C).” left out, “cells. […] Similarly, the toxicity of DSePA/D-DSePA was studied in non-cancerous lung fibroblast cells, WI-38 and WI-26 VA4 in the concentration range of 0.1 to 1000 μM at 48 h post treatment by MTT assay (FIG. 9D and 9E).” for “cells.”
as §2

Another assay concerns H1975 cells. Nature of the assay: MTT assay, anti-proliferative effect in H1975 cells. The following applies: 48 h treatment, read-out: IC50 to inhibit cell proliferation. As to the method:
as §1, §2

The subject of the next assay is H3122 cells. Briefly: MTT assay, anti-proliferative effect in H3122 cells. The following applies: 48 h treatment, read-out: IC50 to inhibit cell proliferation. The procedure: as §1, §2
Assay [2] concerns A549 cells. Briefly: Clonogenic assay in A549 cells. The following applies: seven days treatment, read-out: IC50 to inhibit growth (survival fraction). As to the method:
(§3) Further, clonogenic assay is considered as the gold standard method for evaluating the anticancer activity of any compound and is also a good indicator of the in vivo efficacy of any anticancer compound. Therefore, the therapeutic index of DSePA and D-DSePA in A549/WI-38 cells was also validated by employing the clonogenic assay. For this, A549/WI-38 cells were treated with the varying concentrations (0.1-2 μM)/(1-500 μM) of DSePA/D-DSePA for seven days and the survival fraction was calculated by counting the number of surviving clones (FIG. 11A). The plot of survival fraction verses the concentration of DScPA/D-DSCPA was used to estimate the IC50 of above compounds to inhibit the growth of A549/WI-38 cells. […] This clearly confirmed that deuteration of DScPA reduced its toxicity in normal cells without compromising its efficacy in cancer cells. […]
(§4) Clonogenic assay—Clonogenic assay was performed according to the method reported previously. […] After 7 days, colonies were fixed with absolute methanol for 5 min, stained with 0.5% crystal violet for 5 min, washed with distilled water to remove excess stain and counted manually under a stereo microscope. […] The plating efficiency and the survival fraction under irradiated and drug treated conditions were calculated using following formulae: […]
(§5) The plating efficiency of A549 and WI38 cells was calculated by seeding ˜300 and ˜500 cells respectively. […]

Assay [3] has as its system WI-38 cells. Briefly: Clonogenic assay in WI-38 cells. The conditions noted are these: seven days treatment, read-out: IC50 to inhibit growth (survival fraction). As to the method: as §3, §4, §5
Assay [4] relates to WI-38 cells. Nature of the assay: MTT assay, toxicity in non-cancerous lung fibroblast WI-38 cells. The conditions noted are these: WI38 cells, 48 h post treatment, read-out: IC50 for inhibiting the cell proliferation.
From the text: as §1, with “For this, above cells were treated with the varying concentrations (0.1-100 μM) of DSePA/D-DSePA for 48 h and the cell viability was determined by MTT assay (FIG. 9A-C).” left out, “cells. […] Similarly, the toxicity of DSePA/D-DSePA was studied in non-cancerous lung fibroblast cells, WI-38 and WI-26 VA4 in the concentration range of 0.1 to 1000 μM at 48 h post treatment by MTT assay (FIG. 9D and 9E).” for “cells.”
as §2

With `O=C(O)CC[Se][Se]CCC(=O)O` [D-DSePA, 3,3′-diselenodipropionic acid-D8], the IC50 in the assay on A549 cells [1] stood at 15.2 ± 0.9 µM; in the assay with WI-26 VA4 cells it was 550 ± 10.2 µM; with H1975 cells it was 4.6 ± 0.7 µM; with H3122 cells, 46.5 ± 2.9 µM; in the assay on A549 cells [2] it was 0.9 ± 0.03 µM; with WI-38 cells [3], 35.5 ± 0.02 µM. In the assay on WI-38 cells [4], the IC50 came out at 1000 ± 6.3 µM.
